Molecules are shown by their SMILES.

The source of these data is ChEMBL document CHEMBL1212829, “Efficient synthesis of Hsp90 inhibitor dimers as potential antitumor agents” (Bioorg Med Chem, 2010).

Assay [1] addresses Heat shock protein HSP 90-alpha (Homo sapiens, UniProt P07900). Briefly: Displacement of biotin-labeled geldanamycin from N-terminal His-tagged human recombinant HSP90alpha expressed in Escherichia coli.
The target of assay [2] is Heat shock protein HSP90 (Homo sapiens, UniProt P07900+P08238). As to the kind of experiment: Inhibition of Hsp90 in human SKBR3 cells assessed as Her2 degradation after 24 hrs by Western blotting. In kind it is cell-based. The following applies: sk-br-3. (A western blot detects proteins with antibodies after separation by electrophoresis.)
Assay [3] has as its system SK-BR-3. As to the kind of experiment: Cytotoxicity against human SKBR3 cells after 72 hrs by crystal violet assay. The class given is functional, cell-based. The following applies: SK-BR-3, 72 h.

In the case of `C#CCCCCn1c(Sc2cc3c(cc2Br)OCO3)nc2c(N)ncnc21`, the figures for the IC50 in assay [1], in assay [2] and in assay [3] were 1400 nM, 2600 nM and 1400 nM, respectively.

On to `Nc1ncnc2c1nc(Sc1cc3c(cc1Br)OCO3)n2CCCc1cn(CCOCCOCCOCCOCCOCCn2cc(CCCn3c(Sc4cc5c(cc4Br)OCO5)nc4c(N)ncnc43)nn2)nn1`, for which the IC50 in assay [1] is 650 nM; in assay [2], 6300 nM; in assay [3], 3800 nM.

As to `Nc1ncnc2c1nc(Sc1cc3c(cc1Br)OCO3)n2CCCCc1cn(CCOCCOCCOCCOCCOCCn2cc(CCCCn3c(Sc4cc5c(cc4Br)OCO5)nc4c(N)ncnc43)nn2)nn1`, the figures for the IC50 in assay [1], in assay [2] and in assay [3] were 5100 nM, 5200 nM and 3000 nM, respectively.

`Nc1ncnc2c1nc(Sc1cc3c(cc1Br)OCO3)n2CCCc1cn(CCOCCOCCOCCOCCOCCOCCn2cc(CCCn3c(Sc4cc5c(cc4Br)OCO5)nc4c(N)ncnc43)nn2)nn1`: the IC50 in assay [1] came out at 790 nM; in assay [2], 7100 nM; in assay [3], 5600 nM.

As to `Nc1ncnc2c1nc(Sc1cc3c(cc1Br)OCO3)n2CCCCc1cn(CCOCCOCCOCCOCCOCCOCCn2cc(CCCCn3c(Sc4cc5c(cc4Br)OCO5)nc4c(N)ncnc43)nn2)nn1`, the IC50 in assay [1] amounted to 3400 nM; in assay [2], 4700 nM; in assay [3] it was 5000 nM.

Take `Nc1ncnc2c1nc(Sc1cc3c(cc1Br)OCO3)n2CCCc1cn(CCOCCOCCOCCOCCOCCOCCOCCn2cc(CCCn3c(Sc4cc5c(cc4Br)OCO5)nc4c(N)ncnc43)nn2)nn1`: the IC50 in assay [1] is 1100 nM; in assay [2], 9200 nM; in assay [3] it was 4800 nM.

With `Nc1ncnc2c1nc(Sc1cc3c(cc1Br)OCO3)n2CCCCc1cn(CCOCCOCCOCCOCCOCCOCCOCCn2cc(CCCCn3c(Sc4cc5c(cc4Br)OCO5)nc4c(N)ncnc43)nn2)nn1`, the IC50 in assay [1] came to 3100 nM; in assay [2], 4200 nM; in assay [3], 4800 nM.

Turning to `Nc1ncnc2c1nc(Sc1cc3c(cc1Br)OCO3)n2CCCc1cn(CCCO)nn1`, the IC50 in assay [1] was determined as 490 nM; in assay [2] it was 3900 nM; in assay [3], 1800 nM.

In the case of `Nc1ncnc2c1nc(Sc1cc3c(cc1Br)OCO3)n2CCCCc1cn(CCCO)nn1`, the IC50 came out at 510 nM in assay [1], 2900 nM in assay [2] and 1400 nM in assay [3].

Consider `C#CCCCn1c(Sc2cc3c(cc2Br)OCO3)nc2c(N)ncnc21`, for which the IC50 in assay [1] was found to be 300 nM; in assay [2] it was 460 nM; in assay [3] it was 330 nM.

As usually defined, the IC50 is the concentration that gives 50% inhibition.
